According to patent publication US20210403485A1, “PYRAZOLOPYRIMIDINE DERIVATIVE AS SELECTIVE TRK INHIBITOR” (SHANDONG LUYE PHARMACEUTICAL CO., LTD., priority 2018, published 2021):

How the values were obtained:
BaF3 ETV6-NTRK3-G623R = target: T1, BaF3 ETV6-NTRK3-G623R (Homo sapiens, UniProt Q16288, G623R, cells depend on it); test: Inhibitory activity against cell proliferation (CellTiter-Glo, 72 hours); assay type: cell-based; details: read-out: Half maximal inhibitory concentration IC50 of cells, BaF3 ETV6-NTRK3-G623R
T1 construct: fused on or other part: N-terminal part of ETV6 (TEL) as fusion partner (part of the key); P41212 (Transcription factor ETV6)
T1 sequence (Q16288 whole entry G623R, the tested form may be a part): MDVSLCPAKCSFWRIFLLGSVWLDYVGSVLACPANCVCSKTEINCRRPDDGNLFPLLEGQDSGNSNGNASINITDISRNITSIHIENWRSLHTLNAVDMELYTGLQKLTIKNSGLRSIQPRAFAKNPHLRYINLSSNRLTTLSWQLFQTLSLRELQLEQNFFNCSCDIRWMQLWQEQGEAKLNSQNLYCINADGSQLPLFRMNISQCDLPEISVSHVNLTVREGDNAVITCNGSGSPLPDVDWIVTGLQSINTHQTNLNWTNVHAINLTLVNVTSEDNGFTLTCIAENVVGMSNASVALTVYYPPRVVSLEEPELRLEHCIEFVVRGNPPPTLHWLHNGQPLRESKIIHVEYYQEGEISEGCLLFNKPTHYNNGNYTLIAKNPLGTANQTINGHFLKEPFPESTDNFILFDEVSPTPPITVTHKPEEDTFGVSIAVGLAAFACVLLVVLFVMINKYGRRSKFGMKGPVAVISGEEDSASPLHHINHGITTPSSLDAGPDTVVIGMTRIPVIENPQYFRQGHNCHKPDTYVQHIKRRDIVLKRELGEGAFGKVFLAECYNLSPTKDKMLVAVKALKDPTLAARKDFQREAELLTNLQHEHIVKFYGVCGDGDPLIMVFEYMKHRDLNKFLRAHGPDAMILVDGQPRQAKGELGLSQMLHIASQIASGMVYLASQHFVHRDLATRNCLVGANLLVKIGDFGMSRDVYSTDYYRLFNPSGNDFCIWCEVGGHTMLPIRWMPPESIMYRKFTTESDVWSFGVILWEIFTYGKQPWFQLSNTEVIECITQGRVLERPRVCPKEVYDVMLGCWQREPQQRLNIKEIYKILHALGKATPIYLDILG
In short: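 Ba/F3 stable fusion lines were seeded at 5000 cells/well (viability >90% by trypan blue) and allowed to settle overnight at 37 °C, 5% CO2. Compounds were then added as a 9-point, 3-fold series from a 10-fold working solution with a top concentration of 10 μM, in triplicate. IC50 values came from nonlinear sigmoidal fits of luminescence.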

[1] = Animal body weight and general observations, Ba/F3 ETV6-NTRK3-G623R tumor-bearing nude mice
Method: The mice in groups were intragastrically administrated on the next day, and the animal body weight and the long and short diameters of the tumor were measured once every other day.

[2] = system: Ba/F3 ETV6-NTRK3-G623R cells; test: Efficacy test in animals: subcutaneous xenograft, intragastric administration; assay type: in vivo, nude mice
Method: Cells in the logarithmic growth phase were collected and resuspended in serum-free medium to a cell concentration of 2-4×10^7 cells/mL. An equal volume of matrigel was added to the cell suspension to achieve a final cell concentration of 1-2×10^7 cells/mL. 0.2 mL of tumor cell suspension was subcutaneously inoculated at the scapula of each nude mouse with the inoculation amount of 2-4×10^6 cells/mouse to prepare the animal models.

With `O=C1NC2(CC2)COc2ncc(F)cc2C2COCCN2c2ccn3ncc1c3n2` (single isomer, unassigned) [WX001B] the GI50 (BaF3 ETV6-NTRK3-G623R) was 2.3 nM, the “Rate of change in body weight (%) of day 11 to day 0” value ([1]; 2.5 mg/kg bid) was 13.8% and the “Rate of change in body weight (%) of day 11 to day 0” value ([1]; 5 mg/kg bid) was 14.3%. The “Rate of change in body weight (%) of day 11 to day 0” value ([1]; 10 mg/kg bid) was 15.6%, the “Rate of change in body weight (%) of day 11 to day 0” value ([1]; 20 mg/kg bid) was 8.8% and the “Tolerance (body weight course)” value ([1]; 2.5-20 mg/kg bid) was “good tolerance”. For the same compound, the Body weight ([1]; Day 0, 2.5 mg/kg bid) was 23.6 ± 1.7 g, the Body weight ([1]; Day 0, 5 mg/kg bid) was 24.4 ± 1.9 g and the Body weight ([1]; Day 0, 10 mg/kg bid) was 23.6 ± 2.2 g. It also gave a Body weight ([1]; Day 0, 20 mg/kg bid) of 24.1 ± 2.3 g, a Body weight ([1]; Day 3, 2.5 mg/kg bid) of 24.6 ± 1.7 g and a Body weight ([1]; Day 3, 5 mg/kg bid) of 25.7 ± 1.9 g. For the same compound, the Body weight ([1]; Day 3, 10 mg/kg bid) was 24.9 ± 2.1 g, the Body weight ([1]; Day 3, 20 mg/kg bid) was 25.9 ± 2.8 g and the Body weight ([1]; Day 5, 2.5 mg/kg bid) was 25.5 ± 1.8 g. It also gave a Body weight ([1]; Day 5, 5 mg/kg bid) of 26.5 ± 1.9 g, a Body weight ([1]; Day 5, 10 mg/kg bid) of 26.3 ± 2.2 g and a Body weight ([1]; Day 5, 20 mg/kg bid) of 26.9 ± 2.9 g. For the same compound, the Body weight ([1]; Day 7, 2.5 mg/kg bid) was 26.1 ± 2.1 g, the Body weight ([1]; Day 7, 5 mg/kg bid) was 27.1 ± 1.8 g and the Body weight ([1]; Day 7, 10 mg/kg bid) was 26.7 ± 2.2 g. For the same compound, the Body weight ([1]; Day 7, 20 mg/kg bid) was 26.6 ± 3.2 g, the Body weight ([1]; Day 9, 2.5 mg/kg bid) was 26.5 ± 1.8 g and the Body weight ([1]; Day 9, 5 mg/kg bid) was 27.9 ± 1.9 g. For the same compound, the Body weight ([1]; Day 9, 10 mg/kg bid) was 26.8 ± 2.2 g, the Body weight ([1]; Day 9, 20 mg/kg bid) was 26.4 ± 3.5 g and the Body weight ([1]; Day 11, 2.5 mg/kg bid) was 26.8 ± 2.0 g. For the same compound, the Body weight ([1]; Day 11, 5 mg/kg bid) was 27.9 ± 2.6 g, the Body weight ([1]; Day 11, 10 mg/kg bid) was 27.3 ± 2.2 g and the Body weight ([1]; Day 11, 20 mg/kg bid) was 26.3 ± 3.9 g. The “Inhibition of growth of subcutaneous xenografts” value ([2]; 2.5-20 mg/kg) was “in a dose-dependent manner”, the “Relative tumor proliferation rate T/C” value ([2]; Day 0, 2.5 mg/kg bid) was 100.00% and the Tumor volume ([2]; Day 0, 2.5 mg/kg bid) was 200.40 ± 33.16 mm^3. For the same compound, the “Relative tumor proliferation rate T/C” value ([2]; Day 0, 5 mg/kg bid) was 100.00%, the Tumor volume ([2]; Day 0, 5 mg/kg bid) was 200.35 ± 32.62 mm^3 and the “Relative tumor proliferation rate T/C” value ([2]; Day 0, 10 mg/kg bid) was 100.00%. For the same compound, the Tumor volume ([2]; Day 0, 10 mg/kg bid) was 199.55 ± 34.92 mm^3, the “Relative tumor proliferation rate T/C” value ([2]; Day 0, 20 mg/kg bid) was 100.00% and the Tumor volume ([2]; Day 0, 20 mg/kg bid) was 199.51 ± 34.71 mm^3. The “Relative tumor proliferation rate T/C” value ([2]; Day 3, 2.5 mg/kg bid) was 64.91%, the Tumor volume ([2]; Day 3, 2.5 mg/kg bid) was 392.17 ± 91.44 mm^3 and the “Relative tumor proliferation rate T/C” value ([2]; Day 3, 5 mg/kg bid) was 56.84%. For the same compound, the Tumor volume ([2]; Day 3, 5 mg/kg bid) was 343.40 ± 96.52 mm^3, the “Relative tumor proliferation rate T/C” value ([2]; Day 3, 10 mg/kg bid) was 35.78% and the Tumor volume ([2]; Day 3, 10 mg/kg bid) was 216.15 ± 52.64 mm^3. The “Relative tumor proliferation rate T/C” value ([2]; Day 3, 20 mg/kg bid) was 32.65%, the Tumor volume ([2]; Day 3, 20 mg/kg bid) was 197.28 ± 52.49 mm^3 and the “Relative tumor proliferation rate T/C” value ([2]; Day 5, 2.5 mg/kg bid) was 42.80%. The Tumor volume ([2]; Day 5, 2.5 mg/kg bid) was 507.81 ± 127.36 mm^3, the “Relative tumor proliferation rate T/C” value ([2]; Day 5, 5 mg/kg bid) was 32.50% and the Tumor volume ([2]; Day 5, 5 mg/kg bid) was 385.61 ± 63.66 mm^3. The “Relative tumor proliferation rate T/C” value ([2]; Day 5, 10 mg/kg bid) was 19.67%, the Tumor volume ([2]; Day 5, 10 mg/kg bid) was 233.42 ± 49.88 mm^3 and the “Relative tumor proliferation rate T/C” value ([2]; Day 5, 20 mg/kg bid) was 13.62%. For the same compound, the Tumor volume ([2]; Day 5, 20 mg/kg bid) was 161.67 ± 45.52 mm^3, the “Relative tumor proliferation rate T/C” value ([2]; Day 7, 2.5 mg/kg bid) was 36.00% and the Tumor volume ([2]; Day 7, 2.5 mg/kg bid) was 689.34 ± 174.38 mm^3. The “Relative tumor proliferation rate T/C” value ([2]; Day 7, 5 mg/kg bid) was 29.86%, the Tumor volume ([2]; Day 7, 5 mg/kg bid) was 571.74 ± 105.62 mm^3 and the “Relative tumor proliferation rate T/C” value ([2]; Day 7, 10 mg/kg bid) was 15.44%. For the same compound, the Tumor volume ([2]; Day 7, 10 mg/kg bid) was 295.60 ± 218.67 mm^3, the “Relative tumor proliferation rate T/C” value ([2]; Day 7, 20 mg/kg bid) was 9.61% and the Tumor volume ([2]; Day 7, 20 mg/kg bid) was 184.02 ± 76.71 mm^3. The “Relative tumor proliferation rate T/C” value ([2]; Day 9, 2.5 mg/kg bid) was 34.48%, the Tumor volume ([2]; Day 9, 2.5 mg/kg bid) was 862.41 ± 275.13 mm^3 and the “Relative tumor proliferation rate T/C” value ([2]; Day 9, 5 mg/kg bid) was 24.33%. The Tumor volume ([2]; Day 9, 5 mg/kg bid) was 608.56 ± 193.58 mm^3, the “Relative tumor proliferation rate T/C” value ([2]; Day 9, 10 mg/kg bid) was 11.02% and the Tumor volume ([2]; Day 9, 10 mg/kg bid) was 275.49 ± 176.66 mm^3. For the same compound, the “Relative tumor proliferation rate T/C” value ([2]; Day 9, 20 mg/kg bid) was 6.67%, the Tumor volume ([2]; Day 9, 20 mg/kg bid) was 166.80 ± 119.15 mm^3 and the “Relative tumor proliferation rate T/C” value ([2]; Day 11, 2.5 mg/kg bid) was 31.05%. The Tumor volume ([2]; Day 11, 2.5 mg/kg bid) was 1079.47 ± 236.62 mm^3, the “Relative tumor proliferation rate T/C” value ([2]; Day 11, 5 mg/kg bid) was 18.40% and the Tumor volume ([2]; Day 11, 5 mg/kg bid) was 639.67 ± 102.59 mm^3. For the same compound, the “Relative tumor proliferation rate T/C” value ([2]; Day 11, 10 mg/kg bid) was 8.91%.
